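GI50: concentration for 50% inhibition of growth. The concentration for full growth arrest is given as TGI.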
How the values were obtained:
Test in all cases: DTP human tumour cell line panel, 384-well format
[1] = tested on: EKVX NSCLC
[2] = tested on: NCI-H226 lung
[3] = tested on: UACC-62 melanoma
[4] = tested on: MCF7 breast
[5] = tested on: UACC-257 melanoma
[6] = tested on: HS 578T breast
[7] = tested on: T-47D breast
[8] = tested on: IGROV1 ovarian
[9] = tested on: PC-3 prostate
[10] = tested on: SK-MEL-5 melanoma
[11] = tested on: MDA-MB-468 breast
[12] = tested on: NCI-H522 lung
[13] = tested on: NCI/ADR-RES ovarian
[14] = tested on: K-562 leukemia
[15] = tested on: SF-268 CNS
[16] = tested on: HCT-15 colon
[17] = tested on: MDA-MB-435 melanoma
[18] = tested on: RPMI-8226 leukemia
[19] = tested on: BT-549 breast
[20] = tested on: ACHN renal
[21] = tested on: SNB-19 CNS
[22] = tested on: SK-MEL-28 melanoma
[23] = tested on: OVCAR-4 ovarian
[24] = tested on: MALME-3M melanoma
[25] = tested on: LOX IMVI melanoma
[26] = tested on: HOP-62 NSCLC
[27] = tested on: SF-539 CNS
[28] = tested on: U251 glioblastoma
[29] = tested on: OVCAR-5 ovarian
[30] = tested on: RXF 393 renal
[31] = tested on: HL-60(TB) leukemia
[32] = tested on: HCT-116 colon
[33] = tested on: SW-620 colon
[34] = tested on: KM12 colon
[35] = tested on: TK-10 renal
[36] = tested on: HCC-2998 colon
[37] = tested on: HOP-92 NSCLC
[38] = tested on: OVCAR-8 ovarian
[39] = tested on: COLO 205 colon
[40] = tested on: OVCAR-3 ovarian
[41] = tested on: SNB-75 CNS
[42] = tested on: HT29 colon
[43] = tested on: CCRF-CEM leukemia
[44] = tested on: SN12C renal
[45] = tested on: NCI-H23 lung
[46] = tested on: A549 NSCLC
[47] = tested on: 786-0 renal
[48] = tested on: M14 melanoma
[49] = tested on: A498 renal
[50] = tested on: MOLT-4 leukemia
[51] = tested on: NCI-H322M lung
[52] = tested on: UO-31 renal
[53] = tested on: NCI-H460 NSCLC
[54] = tested on: CAKI-1 renal
[55] = tested on: SF-295 CNS
[56] = tested on: SK-OV-3 ovarian
[57] = tested on: MDA-MB-231 breast
[58] = tested on: DU-145 prostate

`COc1cc(C(=O)N[C@@H]2CCCN(C)C2)ccc1Nc1ncc2c(n1)N(C1CCCC1)CC(C)(C)C(=O)N2C` showed a GI50 [1] of 119 nM, a TGI [1] of 1880 nM and a GI50 [2] of 1620 nM. It also gave a TGI [2] of 12000 nM, a GI50 [3] of 33.7 nM and a TGI [3] of 252 nM. The GI50 [4] was 28.9 nM, the TGI [4] was 1300 nM and the GI50 [5] was 40.8 nM. It also gave a TGI [5] of 612 nM, a GI50 [6] of 16.9 nM and a TGI [6] of 89 nM. It also gave a GI50 [7] of 81.5 nM, a TGI [7] of 892 nM and a GI50 [8] of 45.7 nM. It also gave a TGI [8] of 1670 nM, a GI50 [9] of 62.1 nM and a TGI [9] of 2620 nM. It also gave a GI50 [10] of 25.3 nM, a TGI [10] of 133 nM and a TGI [11] of 16.3 nM. It also gave a GI50 [12] of 17.1 nM, a TGI [12] of 37.5 nM and a GI50 [13] of 695 nM. It also gave a TGI [13] of 2340 nM, a GI50 [14] of 19.1 nM and a TGI [14] of 55.4 nM. For the same compound, the GI50 [15] was 10.5 nM, the TGI [15] was 47 nM and the GI50 [16] was 69.6 nM. For the same compound, the TGI [16] was 334 nM, the GI50 [17] was 19 nM and the TGI [17] was 40.6 nM. It also gave a GI50 [18] of 31.6 nM, a TGI [18] of 101 nM and a GI50 [19] of 43.2 nM. It also gave a TGI [19] of 309 nM, a GI50 [20] of 541 nM and a TGI [20] of 2230 nM. For the same compound, the GI50 [21] was 50.1 nM, the TGI [21] was 1850 nM and the GI50 [22] was 128 nM. It also gave a TGI [22] of 911 nM, a GI50 [23] of 1110 nM and a TGI [23] of 2780 nM. It also gave a GI50 [24] of 45.9 nM, a TGI [24] of 251 nM and a GI50 [25] of 34.1 nM. The TGI [25] was 201 nM, the GI50 [26] was 31.7 nM and the TGI [26] was 598 nM. It also gave a GI50 [27] of 36 nM, a TGI [27] of 267 nM and a GI50 [28] of 46.7 nM. For the same compound, the TGI [28] was 1440 nM, the GI50 [29] was 35.9 nM and the TGI [29] was 1220 nM. For the same compound, the GI50 [30] was 20 nM, the TGI [30] was 61.4 nM and the GI50 [31] was 14.3 nM. It also gave a TGI [31] of 28.3 nM, a GI50 [32] of 39.4 nM and a TGI [32] of 705 nM. It also gave a GI50 [33] of 20.5 nM, a TGI [33] of 114 nM and a GI50 [34] of 17 nM. The TGI [34] was 1050 nM, the GI50 [35] was 1170 nM and the TGI [35] was 4970 nM. It also gave a GI50 [36] of 21.8 nM, a TGI [36] of 94.2 nM and a GI50 [37] of 88.1 nM. It also gave a TGI [37] of 989 nM, a GI50 [38] of 22.3 nM and a TGI [38] of 53.9 nM. It also gave a GI50 [39] of 19.5 nM, a TGI [39] of 71.4 nM and a GI50 [40] of 18.1 nM. It also gave a TGI [40] of 47.9 nM, a GI50 [41] of 285 nM and a TGI [41] of 2610 nM. It also gave a GI50 [42] of 21.2 nM, a TGI [42] of 68.1 nM and a TGI [43] of 21.3 nM. The GI50 [44] was 94.2 nM, the TGI [44] was 2210 nM and the GI50 [45] was 17.6 nM. The TGI [45] was 52.6 nM, the GI50 [46] was 38.7 nM and the TGI [46] was 1090 nM. It also gave a GI50 [47] of 63.8 nM, a TGI [47] of 1440 nM and a GI50 [48] of 27.3 nM. The TGI [48] was 136 nM, the GI50 [49] was 206 nM and the TGI [49] was 1850 nM. It also gave a GI50 [50] of 13.3 nM, a TGI [50] of 26.4 nM and a GI50 [51] of 510 nM. It also gave a TGI [51] of 3730 nM, a GI50 [52] of 345 nM and a TGI [52] of 1390 nM. The GI50 [53] was 21.7 nM, the TGI [53] was 47.9 nM and the GI50 [54] was 395 nM. For the same compound, the TGI [54] was 2640 nM, the GI50 [55] was 38.6 nM and the TGI [55] was 196 nM. The GI50 [56] was 45.6 nM, the TGI [56] was 1200 nM and the GI50 [57] was 41.8 nM. The TGI [57] was 2220 nM, the GI50 [58] was 35.1 nM and the TGI [58] was 206 nM.
